These results are taken from ChEMBL document CHEMBL1201862, “PubChem BioAssay data set” (2004).

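Dose response: 5 concentrations. Exposure: 48 h. Format: 96-well plates. Endpoint: linear interpolation; highest concentration if not reached. The concentration for 50% growth inhibition is given as GI50.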 Active and inactive are the calls of the source. Cut-off read from the data, not from the text of the source: active = GI50 up to about 1.1 µM and inactive = higher.

Common to all, as to assay: NCI tumour cell line growth inhibition, 48 h
Assay [1] relates to KM12.
Assay [2] has as its system NCI-H460.
Assay [3] concerns ACHN.
Assay [4] has as its system TK-10.
Assay [5] relates to NCI-H522.
The test system of assay [6] is DU-145.
Assay [7] relates to OVCAR-8.
Assay [8] concerns SNB-19.
Assay [9] concerns UACC-257.
Assay [10] relates to CAKI-1.
Assay [11] has as its system 786-0.
In assay [12] the test system is HCT-15.
Assay [13] concerns MDA-N.
In assay [14] the test system is MDA-MB-231.
Assay [15] relates to EKVX.
Assay [16] has as its system RPMI-8226.
The test system of assay [17] is UACC-62.
In assay [18] the test system is SK-MEL-28.
For assay [19], the system named is RXF 393.
Assay [20] concerns MCF7.

`CC1CC(NN)=Nc2ccccc2N1` (stereo not drawn): the GI50 in [1], in assay [2], in [3], in [4], in assay [5] and in assay [6] was > 100 µM (inactive) each time. The GI50 in [7] was > 100 µM (inactive); in assay [8], > 100 µM (inactive); in [9], > 100 µM (inactive); in assay [10], > 100 µM (inactive); in assay [11] it was > 100 µM (inactive); in assay [12], over 100 µM. For the same compound, the GI50 is > 100 µM (inactive) in assay [13]; > 100 µM (inactive) in assay [14]; > 100 µM (inactive) in [15]; 65.9 µM (inactive) in assay [16]; > 100 µM (inactive) in [17]; > 100 µM (inactive) in [18].
Turning to `O=S(=O)(N/C(=N\O)Nc1ccc(Cl)cc1)c1cc2ccccc2o1`, the GI50 in [1] was 13.2 µM (inactive); in assay [19] it was 34.8 µM (inactive); in [2] it was 38.7 µM (inactive); in assay [3], 19.5 µM (inactive); in [4], 28.8 µM (inactive); in [5] it was 12.2 µM (inactive). The GI50 is 47.2 µM (inactive) in assay [6]; 18.1 µM (inactive) in [7]; 34.5 µM (inactive) in assay [8]; 19.5 µM (inactive) in assay [9]; 10.6 µM (inactive) in assay [10]; 20.7 µM (inactive) in assay [11]. Besides, the GI50 in [12] was 14.7 µM; in assay [13] it was 38.8 µM (inactive); in [14] it was 18 µM (inactive); in assay [15], 18.6 µM (inactive); in assay [17], 10.9 µM (inactive); in assay [18], 17.9 µM (inactive).
Take `Cc1nc2ccc(F)cc2c2c1CCN2c1ccccc1`: the GI50 in assay [1] was 23.9 µM (inactive); in [19], 15 µM (inactive); in assay [20], 28.1 µM (inactive); in assay [2], 13.5 µM (inactive); in [3], 21.1 µM (inactive); in assay [4] it was 22.9 µM (inactive). In addition, the GI50 is 17.8 µM (inactive) in assay [5]; 31.4 µM (inactive) in assay [6]; 20.9 µM (inactive) in [7]; 32.8 µM (inactive) in [8]; 18.2 µM (inactive) in assay [9]; 23 µM (inactive) in assay [11]. Besides, the GI50 in assay [12] was 25.9 µM; in assay [15], 22.4 µM (inactive); in [16], 15.8 µM (inactive); in [17], 12 µM (inactive); in assay [18], 16.2 µM (inactive).
Take `CC1=NNC(=O)C1C1CC(c2c[nH]c3ccccc23)=NNC1=S` (stereo not drawn): the GI50 in assay [1] was 29.6 µM (inactive); in [19], > 100 µM (inactive); in assay [2], 68.5 µM (inactive); in assay [3], > 100 µM (inactive); in [4], > 100 µM (inactive); in [5] it was > 100 µM (inactive). Further, the GI50 in [6], in assay [7], in assay [8], in assay [9], in [10] and in assay [11] was > 100 µM (inactive) each time. In addition, the GI50 was 39.7 µM in [12]; > 100 µM (inactive) in assay [13]; > 100 µM (inactive) in assay [14]; 28.4 µM (inactive) in [15]; 36.2 µM (inactive) in assay [16]; > 100 µM (inactive) in assay [17]. Moreover, the GI50 in assay [18] is > 100 µM (inactive).
With `C[C@H]1CC(=O)C[C@@H]2CC[C@@H]3[C@H](CC[C@]4(C)C(OC(=O)c5cccc6c(=O)c7ccccc7[nH]c56)CC[C@@H]34)[C@]21C` (stereo partly drawn), the GI50 in [1] is 30.4 µM (inactive); in assay [19], 39.2 µM (inactive); in assay [20] it was 62.5 µM (inactive); in assay [2], 26.7 µM (inactive); in [3], 34.4 µM (inactive); in [4] it was 64.7 µM (inactive). Also, the GI50 in assay [5] was 18.7 µM (inactive); in [6], 54.3 µM (inactive); in assay [7] it was 23.8 µM (inactive); in assay [8], > 100 µM (inactive); in assay [9], 32.6 µM (inactive); in assay [10] it was 10 µM (inactive). Moreover, the GI50 was 48 µM (inactive) in [11]; 31.3 µM in [12]; 23.6 µM (inactive) in [14]; 31.1 µM (inactive) in assay [15]; 11.1 µM (inactive) in assay [16]; 21.6 µM (inactive) in assay [17]. In addition, the GI50 in assay [18] is 38.2 µM (inactive).
Regarding `O=C(NN=C1NCCCCN1)Nc1ccc(Cl)cc1`, the GI50 in [1], in assay [19], in assay [20], in assay [2], in assay [3] and in assay [4] was > 100 µM (inactive) each time. Further, the GI50 in [5], in [7], in assay [8], in assay [9], in [10] and in [11] was > 100 µM (inactive) each time. The GI50 in [12] is over 100 µM; in [15] it was > 100 µM (inactive); in assay [16], 45.1 µM (inactive); in [17], > 100 µM (inactive); in assay [18], > 100 µM (inactive).
Take `CC1=CC(=O)c2cccc(NC3=NCCO3)c21`: the GI50 was 30.4 µM (inactive) in [1]; 48.9 µM (inactive) in assay [19]; 31.3 µM (inactive) in assay [2]; 86.7 µM (inactive) in assay [3]; > 100 µM (inactive) in assay [4]; 69.8 µM (inactive) in [5]. For the same compound, the GI50 in assay [6] was 74.1 µM (inactive); in assay [8], > 100 µM (inactive); in [10], > 100 µM (inactive); in assay [11], 86.5 µM (inactive); in [12] it was 49.4 µM; in assay [13], 27.7 µM (inactive). Moreover, the GI50 is 32.4 µM (inactive) in [14]; > 100 µM (inactive) in assay [15]; 45.1 µM (inactive) in [16]; > 100 µM (inactive) in assay [17]; 78.7 µM (inactive) in assay [18].
With `N#CC1CCCCOCCOCCOCCOCCOCCCCCC1=O` (stereo not drawn), the GI50 in [1], in assay [19], in [2], in assay [3], in assay [4] and in assay [5] was > 100 µM (inactive) throughout. Besides, the GI50 in assay [7] is > 100 µM (inactive); in assay [8] it was > 100 µM (inactive); in [9] it was > 100 µM (inactive); in assay [10], > 100 µM (inactive); in assay [11], > 100 µM (inactive); in assay [12], over 100 µM. For the same compound, the GI50 in assay [15], in assay [16], in [17] and in assay [18] was > 100 µM (inactive) each time.
With `CC(C)CC(=O)NC(Nc1ccc(S(=O)(=O)Nc2ncccn2)cc1)(C(F)(F)F)C(F)(F)F`, the GI50 in [1] was > 100 µM (inactive); in assay [19] it was 20.4 µM (inactive); in assay [2], > 100 µM (inactive); in [3], > 100 µM (inactive); in assay [5] it was > 100 µM (inactive); in assay [6], > 100 µM (inactive). Also, the GI50 in assay [7] was > 100 µM (inactive); in assay [8], > 100 µM (inactive); in [9], > 100 µM (inactive); in assay [10], > 100 µM (inactive); in assay [11], > 100 µM (inactive); in assay [12] it was over 100 µM. Also, the GI50 in assay [13], in [14], in assay [15], in assay [16], in assay [17] and in assay [18] was > 100 µM (inactive) in each case.
As for `CN1CCC2(CC1)/C(=N/C1CCCCC1)NC(=S)N2c1ccccc1`, the GI50 in assay [1] is > 100 µM (inactive); in assay [19], > 100 µM (inactive); in [20] it was > 100 µM (inactive); in assay [2], > 100 µM (inactive); in assay [3], 89.3 µM (inactive); in assay [4], > 100 µM (inactive). For the same compound, the GI50 is > 100 µM (inactive) in assay [6]; > 100 µM (inactive) in assay [7]; > 100 µM (inactive) in assay [8]; > 100 µM (inactive) in assay [9]; > 100 µM (inactive) in [11]; over 100 µM in assay [12]. Moreover, the GI50 in assay [14], in assay [15], in [16], in assay [17] and in assay [18] was > 100 µM (inactive) each time.
For `CCC1(CC)C(=O)OC(=O)C1(CC)CC`, the GI50 in assay [1], in assay [2], in assay [3], in assay [4], in assay [5] and in assay [6] was > 100 µM (inactive) throughout. Moreover, the GI50 is > 100 µM (inactive) in [7]; > 100 µM (inactive) in [8]; > 100 µM (inactive) in [10]; > 100 µM (inactive) in [11]; over 100 µM in assay [12]; > 100 µM (inactive) in assay [13]. For the same compound, the GI50 in assay [14], in assay [15], in assay [16], in assay [17] and in assay [18] was > 100 µM (inactive) in each case.
Turning to `COC(=O)c1c2c(cc3c1CC1(Cc4cc5c(c(C(C)=O)c4C1)CCCC5)C3)CCCC2` (stereo not drawn), the GI50 in [1] is > 100 µM (inactive); in assay [19], > 100 µM (inactive); in assay [20], 85.1 µM (inactive); in assay [3] it was 44.1 µM (inactive); in [4] it was > 100 µM (inactive); in [5] it was > 100 µM (inactive). Also, the GI50 in [7] is > 100 µM (inactive); in [9], 56 µM (inactive); in assay [11], > 100 µM (inactive); in assay [12], over 100 µM; in assay [13], 66.4 µM (inactive); in assay [14] it was > 100 µM (inactive). Moreover, the GI50 in [15] is > 100 µM (inactive); in assay [16] it was 29.6 µM (inactive); in assay [17], > 100 µM (inactive).
